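Results reflect a 48-hour exposure of cells in 96-well plates to compound at five concentrations. The concentration for 50% growth inhibition is given as GI50.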 The source made the active and inactive calls. Rule as the data show it: active = GI50 up to about 1.1 µM and inactive = higher. Non-standard residues stand in square brackets, D forms with d. Residues, ends and D or L forms follow the SMILES beside them. ξ: configuration not given here. *: point of attachment. ξNMeF = CNC(Cc1ccccc1)C(=O)O; NMeV = CN[C@H](C(=O)O)C(C)C; Boc = CC(C)(C)OC(=O)*; OBn = c1ccc(CO*)cc1
Assays:
Assay in all cases: DTP human tumour cell line panel, 48 h
[1] = test system: A549
[2] = test system: OVCAR-3
[3] = test system: HT-29
[4] = test system: RXF 393
[5] = test system: SF-268
[6] = test system: CCRF-CEM
[7] = test system: SW-620
[8] = test system: Malme-3M
[9] = test system: NCI-H226
[10] = test system: SNB-19
[11] = test system: HCT-116
[12] = test system: A498
[13] = test system: EKVX
[14] = test system: CAKI-1
[15] = test system: RPMI-8226
[16] = test system: NCI-H522
[17] = test system: SN12C
[18] = test system: NCI-H23

Row | Compound | GI50 [1] | GI50 [2] | GI50 [3] | GI50 [4] | GI50 [5] | GI50 [6] | GI50 [7] | GI50 [8] | GI50 [9] | GI50 [10] | GI50 [11] | GI50 [12] | GI50 [13] | GI50 [14] | GI50 [15] | GI50 [16] | GI50 [17] | GI50 [18]
1 | CC(C)[C@@H](C(=O)N(C)[C@H](C(=O)N1CCC[C@H]1C(=O)OCc1ccccc1)C(C)C)N(C)C(=O)C(Cc1ccccc1)N(C)C(=O)[C@H](NC(=O)OC(C)(C)C)C(C)C (stereo partly specified) (Boc-[dV][ξNMeF][NMeV][NMeV]P-OBn) | > 31.6 µM (inactive) | > 34.5 µM (inactive) | > 31.6 µM (inactive) | > 31.6 µM (inactive) | > 31.6 µM (inactive) | > 31.6 µM (inactive) | > 31.6 µM (inactive) | > 84.9 µM (inactive) | > 100 µM (inactive) | > 31.6 µM (inactive) | > 31.6 µM (inactive) | > 31.6 µM (inactive) | > 31.6 µM (inactive) | > 31.6 µM (inactive) | 10.4 µM (inactive) | – | – | –
2 | COP(=O)(OC)C(=O)N1N(c2ccc([N+](=O)[O-])cc2)C(=O)C(C)NC1(NNc1ccc([N+](=O)[O-])cc1)P(=O)(OC)OC (stereo unspecified) | > 100 µM (inactive) | > 100 µM (inactive) | – | – | > 100 µM (inactive) | > 100 µM (inactive) | > 100 µM (inactive) | > 100 µM (inactive) | > 100 µM (inactive) | > 100 µM (inactive) | > 100 µM (inactive) | > 100 µM (inactive) | > 100 µM (inactive) | > 100 µM (inactive) | > 100 µM (inactive) | > 100 µM (inactive) | > 100 µM (inactive) | > 100 µM (inactive)
3 | O=c1[nH]c2c(O)cccc2c2cc3c(c(O)c12)OCO3 [NARCIPRIMINE] | 25.5 µM (inactive) | 21.5 µM (inactive) | 21.2 µM (inactive) | – | 23.2 µM (inactive) | 10 µM (inactive) | 26.6 µM (inactive) | 22.8 µM (inactive) | 17.4 µM (inactive) | 13.6 µM (inactive) | 13.8 µM (inactive) | 21.2 µM (inactive) | 25.8 µM (inactive) | 20.9 µM (inactive) | 25 µM (inactive) | 19.3 µM (inactive) | 20.7 µM (inactive) | –
4 | CCOC(=O)NC(=O)c1cn(CCCCCOC(=O)NCCCCCCNC(=O)OCCCCCn2cc(C(=O)NC(=O)OCC)c(=O)[nH]c2=O)c(=O)[nH]c1=O | > 100 µM (inactive) | > 100 µM (inactive) | > 100 µM (inactive) | > 100 µM (inactive) | > 100 µM (inactive) | > 100 µM (inactive) | > 100 µM (inactive) | > 100 µM (inactive) | > 100 µM (inactive) | > 100 µM (inactive) | > 100 µM (inactive) | > 100 µM (inactive) | > 100 µM (inactive) | > 100 µM (inactive) | > 100 µM (inactive) | > 100 µM (inactive) | > 100 µM (inactive) | –
5 | COC(=O)C(=O)C(C(=O)C(=O)Nc1ccc(Cl)cc1C)c1nc2ccc(C(=O)c3ccccc3)cc2nc1O (stereo unspecified) | > 100 µM (inactive) | > 100 µM (inactive) | > 100 µM (inactive) | 52.2 µM (inactive) | > 100 µM (inactive) | 50.6 µM (inactive) | > 100 µM (inactive) | > 100 µM (inactive) | 33.5 µM (inactive) | > 100 µM (inactive) | > 100 µM (inactive) | 21.6 µM (inactive) | > 100 µM (inactive) | 68.4 µM (inactive) | > 100 µM (inactive) | 37 µM (inactive) | > 100 µM (inactive) | > 100 µM (inactive)
6 | COc1nc(NC2OCC(OC(C)=O)C(OC(C)=O)C2OC(C)=O)c(/N=C(\C)C(C)=O)c(=O)n1C (stereo unspecified) | > 100 µM (inactive) | – | > 100 µM (inactive) | > 100 µM (inactive) | > 100 µM (inactive) | > 100 µM (inactive) | > 100 µM (inactive) | > 100 µM (inactive) | 0.63 µM (active) | > 100 µM (inactive) | > 100 µM (inactive) | > 100 µM (inactive) | > 100 µM (inactive) | > 100 µM (inactive) | > 100 µM (inactive) | – | > 100 µM (inactive) | > 100 µM (inactive)
7 | Cc1nc2nn(Cc3ccccc3)cc2c(=O)o1 | > 100 µM (inactive) | > 100 µM (inactive) | > 100 µM (inactive) | 44 µM (inactive) | > 100 µM (inactive) | > 100 µM (inactive) | > 100 µM (inactive) | > 100 µM (inactive) | > 100 µM (inactive) | > 100 µM (inactive) | > 100 µM (inactive) | > 100 µM (inactive) | > 100 µM (inactive) | – | > 100 µM (inactive) | – | > 100 µM (inactive) | –
8 | O=C(N/N=C/c1ccccc1O)N/N=C/c1ccccc1O | > 100 µM (inactive) | > 100 µM (inactive) | > 100 µM (inactive) | > 100 µM (inactive) | > 100 µM (inactive) | > 100 µM (inactive) | > 100 µM (inactive) | > 100 µM (inactive) | > 100 µM (inactive) | > 100 µM (inactive) | > 100 µM (inactive) | > 100 µM (inactive) | > 100 µM (inactive) | – | > 100 µM (inactive) | > 100 µM (inactive) | > 100 µM (inactive) | > 100 µM (inactive)
9 | CC1c2c(Cl)nc3ccccc3c2Oc2c1c(Cl)nc1ccccc21 | 68.4 µM (inactive) | 81.8 µM (inactive) | 82.8 µM (inactive) | 41.3 µM (inactive) | > 100 µM (inactive) | > 100 µM (inactive) | 99.5 µM (inactive) | > 100 µM (inactive) | – | > 100 µM (inactive) | 74.6 µM (inactive) | > 100 µM (inactive) | 37.6 µM (inactive) | – | 32.8 µM (inactive) | 43.8 µM (inactive) | – | > 100 µM (inactive)
10 | CCN(CC)CCNc1ccc2ncn3c4ccccc4c(=O)c1c23 | 2.85 µM (inactive) | 12.8 µM (inactive) | 2.2 µM (inactive) | – | 3.99 µM (inactive) | 4.1 µM (inactive) | 2.52 µM (inactive) | 3.63 µM (inactive) | 2.18 µM (inactive) | 9.84 µM (inactive) | 0.916 µM (active) | 6.7 µM (inactive) | – | 2.06 µM (inactive) | 4.59 µM (inactive) | 2.26 µM (inactive) | 5.36 µM (inactive) | 7.06 µM (inactive)
11 | CC1=C(/C=C/C(C)=C/C=C/C(C)=C/C=C/C=C(C)/C=C/C=C(C)/C=C/C=C(C)/C=C/C=C(\C)C(=O)O)C(C)(C)CCC1 | > 100 µM (inactive) | > 100 µM (inactive) | > 100 µM (inactive) | > 100 µM (inactive) | > 100 µM (inactive) | > 100 µM (inactive) | > 100 µM (inactive) | > 100 µM (inactive) | > 100 µM (inactive) | > 100 µM (inactive) | > 100 µM (inactive) | > 100 µM (inactive) | > 100 µM (inactive) | > 100 µM (inactive) | > 100 µM (inactive) | > 100 µM (inactive) | > 100 µM (inactive) | > 100 µM (inactive)
12 | CC(=O)c1ccc(NC(=O)C(=O)CC(=O)c2sc(-n3nc(-c4ccccc4)cc3-c3ccccc3)nc2C)cc1 | > 100 µM (inactive) | > 100 µM (inactive) | > 100 µM (inactive) | > 100 µM (inactive) | > 100 µM (inactive) | > 100 µM (inactive) | > 100 µM (inactive) | > 100 µM (inactive) | > 100 µM (inactive) | > 100 µM (inactive) | > 100 µM (inactive) | > 100 µM (inactive) | > 100 µM (inactive) | > 100 µM (inactive) | > 100 µM (inactive) | > 100 µM (inactive) | > 100 µM (inactive) | > 100 µM (inactive)
13 | CN1Nc2ccccc2CC1=O | > 100 µM (inactive) | > 100 µM (inactive) | > 100 µM (inactive) | – | > 100 µM (inactive) | > 100 µM (inactive) | > 100 µM (inactive) | > 100 µM (inactive) | > 100 µM (inactive) | > 100 µM (inactive) | > 100 µM (inactive) | > 100 µM (inactive) | > 100 µM (inactive) | > 100 µM (inactive) | > 100 µM (inactive) | – | > 100 µM (inactive) | > 100 µM (inactive)
14 | C[C@]12CC[C@H](OC3CCCCO3)CC1=CC[C@@H]1C2CC[C@]2(C)/C(=N/O)CCC12 (stereo partly specified) | 18.5 µM (inactive) | 17 µM (inactive) | 12.3 µM (inactive) | 23.2 µM (inactive) | – | – | 36.9 µM (inactive) | 17.9 µM (inactive) | – | 26.5 µM (inactive) | 16.1 µM (inactive) | > 100 µM (inactive) | 23.7 µM (inactive) | 40.6 µM (inactive) | 10.6 µM (inactive) | 16.9 µM (inactive) | 14.2 µM (inactive) | 19.9 µM (inactive)
15 | COC(=O)[C@]1(C)C(OC)=CC(=O)C2C1[C@H]1CCC[C@@H]21 (stereo partly specified) | > 100 µM (inactive) | > 100 µM (inactive) | > 100 µM (inactive) | > 100 µM (inactive) | > 100 µM (inactive) | > 100 µM (inactive) | – | > 100 µM (inactive) | > 100 µM (inactive) | > 100 µM (inactive) | > 100 µM (inactive) | > 100 µM (inactive) | > 100 µM (inactive) | > 100 µM (inactive) | > 100 µM (inactive) | > 100 µM (inactive) | > 100 µM (inactive) | > 100 µM (inactive)
16 | CN1C(=O)CC2(C)c3cc(C=O)ccc3N(C)C12 (stereo unspecified) | > 100 µM (inactive) | > 100 µM (inactive) | > 100 µM (inactive) | > 100 µM (inactive) | > 100 µM (inactive) | > 100 µM (inactive) | > 100 µM (inactive) | > 100 µM (inactive) | > 100 µM (inactive) | > 100 µM (inactive) | > 100 µM (inactive) | > 100 µM (inactive) | > 100 µM (inactive) | – | – | > 100 µM (inactive) | > 100 µM (inactive) | > 100 µM (inactive)

Reference: ChEMBL document CHEMBL1201862, “PubChem BioAssay data set” (2004)
